Measured values reported in patent US20250144067A1, “PERSONALIZED STARVATION THERAPY FOR CANCER” (Faeth Therapeutics, Inc., priority 2021, published 2025).
Counter-ions that a name gives are not always drawn.

What was measured:
[1] = test system: NCI-H292 lung cancer cells; assay: FDA drug screening, complete media vs cholesterol-free media without statin (TABLE 1); format: cell-based, human
[2] = test system: NCI-H292 lung cancer cells; assay: FDA drug screening, complete media vs cholesterol-free media with simvastatin (TABLE 2); format: cell-based, human; details: for Cholesterol-free media + simvastatin (0.04 μM) / Complete Media: NCI-H292 cells
[3] = Complete minus Cholesterol-free, greater than 0 enhanced anti-cancer activity, about 0 neutral, below 0 antagonist
[4] = NCI-H292 cells, FDA drug library screen, cholesterol-free media without statin
[5] = NCI-H292 cells, FDA drug library screen, complete media
[6] = FDA drug library screen, cholesterol-free media with simvastatin 0.04 μM
[7] = FDA drug library screen, complete media
[8] = complete media minus cholesterol-free media + simvastatin, >0 enhanced anti-cancer activity, about 0 neutral, <0 antagonist
[9] = NCI-H292 cells, cholesterol-free media without statin, FDA drug library screen
[10] = NCI-H292 cells, complete media, FDA drug library screen
[11] = complete vs cholesterol-free media, >0 enhanced anti-cancer activity, about 0 neutral, <0 antagonist
[12] = cholesterol-free media with simvastatin 0.04 μM, FDA drug library screen (TABLE 2)
[13] = complete media, FDA drug library screen (TABLE 2)
[14] = complete media minus cholesterol-free media + simvastatin (0.04 μM), >0 enhanced anti-cancer activity, about 0 neutral, <0 antagonist
[15] = Complete minus Cholesterol-free, >0 enhanced anti-cancer activity, about 0 neutral, <0 antagonist
[16] = NCI-H292 cells, cholesterol-free media without statin
[17] = FDA library drug in cholesterol-free media with simvastatin 0.04 μM
[18] = FDA library drug in complete media
[19] = complete media vs cholesterol-free media + simvastatin (0.04 μM), >0 enhanced anti-cancer activity, about 0 neutral, <0 antagonist
[20] = cholesterol-free media with simvastatin 0.04 μM, cell growth value in FDA drug screen
[21] = complete media, cell growth value in FDA drug screen
[22] = Complete minus Cholesterol-free, greater than 0 enhanced anti-cancer activity, about 0 neutral, below 0 antagonists
[23] = NCI-H292 cells in cholesterol-free media without statin
[24] = NCI-H292 cells in complete media

CCC(Cc1c(I)cc(I)c(N)c1I)C(=O)O (centres unmarked) [Iopanoic acid]
Difference [1, 3]: −0.10 | Cholesterol-free [1, 4]: 1.02 | Complete [1, 5]: 0.9191 | Cholesterol-free media + simvastatin (0.04 μM) [2, 6]: 1.115 | Complete Media [2, 7]: 1.353 | Difference [2, 8]: 0.24

COCC(=O)Nc1c(I)c(C(=O)NCC(O)CO)c(I)c(C(=O)N(C)CC(O)CO)c1I (centres unmarked) [Iopromide]
Cholesterol-free [1, 9]: 0.9462 | Complete [1, 10]: 1.578 | Difference [1, 11]: 0.63 | Cholesterol-free media + simvastatin (0.04 μM) [2, 12]: 0.8199 | Complete Media [2, 13]: 0.7955 | Difference [2, 14]: −0.02

CNC(=O)c1c(I)c(NC(C)=O)c(I)c(C(=O)O)c1I [Iotalamic acid]
Difference [1, 15]: −0.29 | Cholesterol-free [1, 16]: 1.385 | Complete ([1]; NCI-H292 cells, complete media): 1.091 | Cholesterol-free media + simvastatin (0.04 μM) [2, 17]: 1.459 | Complete Media [2, 18]: 0.9854 | Difference [2, 19]: −0.47

O=C(NCC(O)CO)c1c(I)c(C(=O)NCC(O)CO)c(I)c(N(CCO)C(=O)CO)c1I (centres unmarked) [Ioversol]
Difference [1, 3]: −0.10 | Cholesterol-free [1, 4]: 1.162 | Complete [1, 5]: 1.064 | Cholesterol-free media + simvastatin (0.04 μM) [2, 20]: 1.012 | Complete Media [2, 21]: 1.097 | Difference [2, 8]: 0.09

CC(=O)N(CC(O)CO)c1c(I)c(C(=O)NCCO)c(I)c(C(=O)NCC(O)CO)c1I (centres unmarked) [Ioxilan]
Difference [1, 15]: 0.04 | Cholesterol-free [1, 9]: 1.015 | Complete [1, 10]: 1.05 | Cholesterol-free media + simvastatin (0.04 μM) [2, 17]: 1.221 | Complete Media [2, 18]: 0.868 | Difference [2, 19]: −0.35

OC[C@H]1O[C@@H](c2ccc(F)c(Cc3cc4ccccc4s3)c2)[C@H](O)[C@@H](O)[C@@H]1O [Ipragliflozin]
Difference [1, 22]: −0.87 | Cholesterol-free [1, 23]: 1.769 | Complete [1, 24]: 0.8999 | Cholesterol-free media + simvastatin (0.04 μM) [2, 20]: 0.8889 | Complete Media [2, 21]: 0.9547 | Difference [2, 8]: 0.07

CC(C)[N+]1(C)[C@@H]2CC[C@H]1CC(OC(=O)C(CO)c1ccccc1)C2.[Br-] (some centres unmarked) [Ipratropium (bromide)]
Cholesterol-free [1, 16]: 1.233 | Complete ([1]; NCI-H292 cells, complete media): 0.8969 | Difference ([1]; complete vs cholesterol-free media, […]): −0.34 | Cholesterol-free media + simvastatin (0.04 μM) [2, 17]: 1.536 | Difference ([2]; complete media vs cholesterol-free media + simvastatin (0.04 μM), […]): −0.39

CC(C)Oc1ccc2c(=O)c(-c3ccccc3)coc2c1 [Ipriflavone]
Cholesterol-free [1, 9]: 0.6871 | Complete [1, 10]: 1.135 | Difference [1, 11]: 0.45 | Cholesterol-free media + simvastatin (0.04 μM) [2, 12]: 1.029 | Complete Media [2, 13]: 1.016 | Difference [2, 14]: −0.01

CC(C)NNC(=O)c1ccncc1 [Iproniazid]
Difference [1, 22]: −0.56 | Cholesterol-free [1, 23]: 1.339 | Complete [1, 24]: 0.7813 | Cholesterol-free media + simvastatin (0.04 μM) [2, 6]: 1.211 | Complete Media [2, 7]: 1.75 | Difference [2, 8]: 0.54

CCCCC1=NC2(CCCC2)C(=O)N1Cc1ccc(-c2ccccc2-c2nnn[nH]2)cc1 [Irbesartan]
Difference [1, 3]: −0.08 | Cholesterol-free [1, 4]: 0.8711 | Complete [1, 5]: 0.7887 | Cholesterol-free media + simvastatin (0.04 μM) [2, 20]: 0.9096 | Complete Media [2, 21]: 0.9697 | Difference [2, 8]: 0.06

CCc1c2c(nc3ccc(OC(=O)N4CCC(N5CCCCC5)CC4)cc13)-c1cc3c(c(=O)n1C2)COC(=O)[C@]3(O)CC [Irinotecan (hydrochloride trihydrate)]
Difference [1, 3]: −0.10 | Cholesterol-free [1, 4]: 0.3845 | Complete [1, 5]: 0.2808 | Cholesterol-free media + simvastatin (0.04 μM) [2, 6]: 0.6283 | Complete Media [2, 7]: 0.5165 | Difference [2, 19]: −0.11

CCc1c2c(nc3ccc(OC(=O)N4CCC(N5CCCCC5)CC4)cc13)-c1cc3c(c(=O)n1C2)COC(=O)[C@]3(O)CC [Irinotecan (hydrochloride)]
Difference [1, 15]: 0.02 | Cholesterol-free [1, 9]: 1.352 | Complete [1, 10]: 1.37 | Cholesterol-free media + simvastatin (0.04 μM) [2, 20]: 0.928 | Complete Media [2, 21]: 1.063 | Difference [2, 8]: 0.13

CCc1c2c(nc3ccc(OC(=O)N4CCC(N5CCCCC5)CC4)cc13)-c1cc3c(c(=O)n1C2)COC(=O)[C@]3(O)CC [Irinotecan]
Difference [1, 3]: −0.08 | Cholesterol-free [1, 4]: 0.2676 | Complete [1, 5]: 0.1842 | Cholesterol-free media + simvastatin (0.04 μM) [2, 17]: 0.729 | Complete Media [2, 18]: 0.3631 | Difference [2, 19]: −0.37

Nc1nc(N)nc(-c2cc(Cl)ccc2Cl)n1 [Irsogladine]
Difference [1, 15]: −0.28 | Cholesterol-free [1, 16]: 1.27 | Complete ([1]; NCI-H292 cells, complete media): 0.9941 | Cholesterol-free media + simvastatin (0.04 μM) ([2]; drug in cholesterol-free media with simvastatin 0.04 μM): 1.185 | Complete Media ([2]; drug in complete media): 0.995 | Difference [2, 19]: −0.19
